Tested on: Broiler chickens
Assay: Example 2: 20 day performance of broilers on decreasing levels of lactylate mixture or diclazuril
Assay type: in vivo, chicken (broilers)
Settings: day 20
Excerpt: Broilers were reared on a diet containing either decreasing levels of a mixture of lauric and myristic lactylates (lactylate test diet), or an effective dose of diclazuril (coccidiostat diet), or a filler consisting of corn starch and kaolin. The birds fed the test diet including the lactylates received the lactylates from the first feed onwards. For the first 10 days, the dosing level of lactylates was 0.4%. From day 11 onwards, the dosing level was reduced to 0.3%. At day 20, the economic performance of the broilers was evaluated using the body weight, body weight gain, feed consumption and feed-to-gain ratio.

[1] = lactylates 0.4% first 10 days, 0.3% from day 11, diclazuril effective dose, in diet

## N#CC(c1ccc(Cl)cc1)c1c(Cl)cc(-n2ncc(=O)[nH]c2=O)cc1Cl (centres unmarked) [Coccidiostat, diclazuril]
  economic performance versus control group: did not improve performance
[1]
  Body weight: 850 g
  Body weight gain: 804 g
  Feed Consumption: 1115 g
  Feed-to-Gain ratio: 1.388 g/g
